In patent publication US20110256121A1, “METHODS AND KITS FOR DIAGNOSING OR MONITORING AUTOIMMUNE AND CHRONIC INFLAMMATORY DISEASES” (THE REGENTS OF THE UNIVERSITY OF MICHIGAN, priority 2008, published 2011):

Legend:
Assay type in all cases: cell-based, human
[1] = test system: KIR2DL4; assay: KIR2DL4 expression on T cells by flow cytometry; conditions: 5-azaC 72 h, p<0.001 for both
Method: (§1) T cell purification and culture. Peripheral blood mononuclear cells (PBMC) were isolated from healthy donors by density gradient centrifugation, stimulated for 18 hours with 1 μg/mlphytohemagglutinin (PHA) (Murex, Norcross, Ga.), then treated or not with 5 μm 5-azacytidine (5-azaC, Sigma, St. Louis, Mo.) for 72 hours as described (6). Total T cells, CD4^+ T cells or CD8′ T cells then were purified using the pan T cell isolation kit II or the CD4^+ and CD8^+ T cell isolation kit II from Miltenyi (Auburn, Calif.). T cells were typically >94% CD3^+ by flow cytometry. Jurkat cells (E6-1) were maintained in culture as described (11). This protocol was approved by the University of Michigan Institutional Review Board.
Flow Cytometric Analysis. The following monoclonal antibodies were used: CYC-anti-CD3, FITC-anti-CD8, CYC-anti-CD4, FITC-anti-CD28, CYC-mouse IgG1 and FITC-mouse-IgG1 (all from BD PharMingen, San Diego, Calif.). Anti-CD158b1/b2, j-PE (GL183, reactive with KIR 2DL2/2DL3/2DS2) was obtained from Beckman Coulter Immunotech (Buckinghamshire, UK), anti-CD158d-PE (anti-KIR2DL4) from R&D Systems (Minneapolis, Minn.), and PE-mouse-IgG2A from Abcam (Cambridge Mass.). Cell staining and fixation were performed as described (2; 6), and cells analyzed using a FACSCalibur flow cytometer (BD Biosciences, Franklin Lakes, N.J.).

[2] = test system: KIR2DL2; assay: KIR2DL2 transcripts by real-time quantitative RT-PCR; conditions: relative to β-actin, p<0.001 for both
Method: as §1
Real-time quantitative RT-PCR. Total RNA was isolated using the RNeasy Mini Kit (QIAGEN, Valencia, Calif.). Primers were designed to match polymorphic positions unique to KIR2DL2 or KIR2DL4 genes as described by Uhrberg et al. (13). Controls included β-actin primers as described (14). Real-time quantitative RT-PCR was performed with a Rotor-Gene 3000 (Corbett Robotics, San Francisco, Calif.) and QuantiTect SYBR Green RT-PCR kit (QIAGEN) according to manufacturer's instructions. cDNA synthesized from T cells was used to generate standard curves for β-actin, KIR2DL2 and KIR2DL4, and each experiment was repeated at least twice.
Confirmation at the protein and mRNA levels. […]

[3] = test system: KIR2DL4 promoter; assay: KIR2DL4 promoter reporter construct assay in T cells
Method: Reporter construct assays. Amplified KIR promoter fragments were subcloned into the EcoRI site of the promoterless pmaxFP-Yellow-PRL vector (Amaxa GmbH). Plasmids were purified using QIAGEN EndoFree Plasmid Kits (QIAGEN), and 2 μg of DNA transfected into untreated or 5-azaC treated human T cells using the human T cell nucleofector kit (Amaxa GmbH) and the manufacturer's protocol. Controls included cotransfection with pmaxGFP (Amaxa GmbH) and transfection with the promoterless reporter vector. Fluorescence was measured by flow cytometry. Site directed mutagenesis. Mutations were introduced into the same pmaxFP-Yellow-PRL KIR2DL2 and KIR2DL4 promoter constructs using the QuickChange Multi Site-Directed Mutagenesis Kit (Stratagene, La Jolla, Calif.). The changes include a […]→[…] mutation at −78→−71 in the Sp1 site, a CCC→ACA mutation at −61→−59 in the Ets1 site, or both, in the KIR2DL2 promoter, and a TTT→GGG mutation at −73→−71 in the Ets1 site, a CCC→ACA mutation at −61→−59 in the Ets1 site, or both, in the KIR2DL4 promoter. A separate G→A mutation in the AML site was also introduced into both promoters at −98 (16; 17). The constructs were transfected in to PHA stimulated, 5-azaC treated T cells as above. Controls included transfection with pmaxGFP.
Effects of 5-azaC on KIR transcriptional activator-DNA interactions. […]

`Nc1ncn([C@@H]2O[C@H](CO)[C@@H](O)[C@H]2O)c(=O)n1` [5-azaC, 5-azacytidine] was tested, and the “KIR2DL4 expression on CD4+ and CD8+ T cells” value [1] was “induces KIR2DL4 expression on CD4+ and CD8+ T cells”, the “KIR2DL2 mRNA in CD4+ and CD8+ T cells” value [2] was “increase is significant in both subsets” and the “increase of KIR2DL4 promoter function” value ([3]; 5-azaC treated vs untreated T cells, FIG. 29b, p<0.005) was 3-4 fold. The “increase of expression of the unmodified KIR2DL4 construct” value ([3]; relative to untreated T cells, FIG. 29c) was ~3 fold.
